Assay results reported in US9096608B2, “Pharmaceutically active pyrazolo-triazine derivatives” (LEAD DISCOVERY CENTER GMBH, priority 2012, dated 2015).
Read-outs that look alike come from different tables or passages of the source.

What was measured:
Assay type in all cases: biochemical
[1] = target: T1, CDK2/CycA (Homo sapiens, UniProt P24941); test: CDK2 Enzymatic Activity Assay (Lance Kinase Activity Assay, FRET); settings: Table 5B; symbols per IC50 ranges of b615
T1 construct: purchased Proqinase
Protocol: (§1) This protocol describes how the Lance Kinase Activity Assay was performed to determine IC50 values of compounds of general formula (I) against CDK/Cyclin complexes. The principle behind this enzymatic assay is based upon the phosphorylation of the Ulight-Peptide Substrat. It is detected by using a specific EU-labeled anti-phospho peptide antibody.
(§2) Binding of an inhibitor to the kinase prevents phosphorylation of the ULlight-MBP Substrat, resulting in a loss of FRET.
CDK2 Enzymatic Activity Assay
(§3) The compounds of general formula (I) exemplary summarized in Table 1 were diluted from a 10 mM DMSO stock solution 1:10 in a total volume of 15 μl DMSO. This compound predilution was then serial diluted 1:3 over 8 steps in DMSO and briefly spun down. Each compound solution was now diluted 1:20 in Enzymatic Buffer (HEPES: 50 mM, pH: 7.5; MgCl2: 10 mM; EGTA: 1 mM; DTT: 2 mM; Tween-20: 0.01%), mixed thoroughly and spun down.
(§4) For positive controls, 2 μl of DMSO working solution were mixed with 6 μl CDK2/CycA/substrate working solution and 2 μl ATP working solution. Positive and negative controls were calculated from at least 8 different wells. The 384 well plates were mixed in a Teleshaker plate mixer (Beckman Coulter, Brea, Calif., USA) at 2000 rpm for 40 sec, and incubated for 1 h at room temperature before addition of 10 μl LANCE Detection Buffer (EDTA: 20 nM; Eu-Anti-P-MBP: 4 nM) per well. Plates were mixed in a Teleshaker plate mixer (Beckman Coulter, Brea, Calif., USA) at 2000 rpm for sec, followed by incubation with Detection Buffer for 1 h, and reading. […] IC50 values were determined from the sigmoidal dose response curves with the software Quattro Workflow (Quattro GmbH, Munich, Germany).

[2] = target: T2, CDK9/Cyclin T1 (Homo sapiens, UniProt P50750); test: CDK9 Enzymatic Activity Assay (Lance Kinase Activity Assay, FRET); settings: for CDK9: Selectivity of CDK7 inhibition over CDK9 inhibition [fold]: Table 5B, symbols per IC50 ranges of b615
T2 construct: purchased Invitrogen
Protocol: as §1, §2
CDK9 Enzymatic Activity Assay
as §3
as §4, with “CDK9/cyclin T1/substrate” for “CDK2/CycA/substrate”, “(1×; EDTA:” for “(EDTA:”

[3] = target: T3, CDK7/CycH/Mat1 (Homo sapiens, UniProt P50613); test: CDK7 Enzymatic Activity Assay (Lance Kinase Activity Assay, FRET)
T3 construct: purchased Carna
Protocol: as §1, §2
CDK7 Enzymatic Activity Assay
as §3
as §4, with “6 μl CDK7/CycH/Mat1/substrate working solution” for “6 μl CDK2/CycA/substrate working solution”, “Detection Buffer (1×; EDTA: […];” for “Detection Buffer (EDTA: 20 nM;”, “rpm for 40 sec, followed” for “rpm for sec, followed”

[4] = Table 5A, 25 μM ATP final, read-out: CDK7: IC50 [mM] for CDK7 inhibition (the above defined ranges apply)

T2 sequence (P50750 whole entry): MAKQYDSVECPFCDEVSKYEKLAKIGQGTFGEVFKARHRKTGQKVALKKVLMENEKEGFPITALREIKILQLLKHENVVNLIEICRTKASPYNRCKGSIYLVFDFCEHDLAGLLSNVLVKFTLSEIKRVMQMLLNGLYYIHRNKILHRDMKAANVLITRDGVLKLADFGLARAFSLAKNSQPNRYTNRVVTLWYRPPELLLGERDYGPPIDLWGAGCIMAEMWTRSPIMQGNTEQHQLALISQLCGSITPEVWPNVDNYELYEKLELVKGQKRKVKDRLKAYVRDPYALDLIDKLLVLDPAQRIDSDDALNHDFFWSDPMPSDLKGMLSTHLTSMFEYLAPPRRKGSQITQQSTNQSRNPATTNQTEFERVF
T2 sequence (O60563 whole entry partner): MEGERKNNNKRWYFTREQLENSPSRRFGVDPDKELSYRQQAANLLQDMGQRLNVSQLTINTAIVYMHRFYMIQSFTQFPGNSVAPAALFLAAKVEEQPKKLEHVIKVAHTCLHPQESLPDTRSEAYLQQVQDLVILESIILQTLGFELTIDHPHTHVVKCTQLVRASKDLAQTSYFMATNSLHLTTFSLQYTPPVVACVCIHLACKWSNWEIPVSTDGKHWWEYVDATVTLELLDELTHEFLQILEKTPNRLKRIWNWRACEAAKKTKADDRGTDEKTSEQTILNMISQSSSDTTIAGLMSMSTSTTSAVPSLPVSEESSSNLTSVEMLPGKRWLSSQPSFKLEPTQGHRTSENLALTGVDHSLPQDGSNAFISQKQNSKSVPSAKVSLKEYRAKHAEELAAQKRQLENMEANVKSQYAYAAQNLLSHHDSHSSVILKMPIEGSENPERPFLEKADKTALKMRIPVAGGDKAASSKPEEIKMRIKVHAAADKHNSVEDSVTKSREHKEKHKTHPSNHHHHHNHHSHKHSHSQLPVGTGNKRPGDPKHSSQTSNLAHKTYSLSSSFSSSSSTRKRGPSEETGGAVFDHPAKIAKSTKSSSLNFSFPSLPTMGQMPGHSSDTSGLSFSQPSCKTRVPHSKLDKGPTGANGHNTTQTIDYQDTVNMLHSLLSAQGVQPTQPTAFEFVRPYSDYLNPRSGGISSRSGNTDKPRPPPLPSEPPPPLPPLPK
T3 sequence (P50613 whole entry): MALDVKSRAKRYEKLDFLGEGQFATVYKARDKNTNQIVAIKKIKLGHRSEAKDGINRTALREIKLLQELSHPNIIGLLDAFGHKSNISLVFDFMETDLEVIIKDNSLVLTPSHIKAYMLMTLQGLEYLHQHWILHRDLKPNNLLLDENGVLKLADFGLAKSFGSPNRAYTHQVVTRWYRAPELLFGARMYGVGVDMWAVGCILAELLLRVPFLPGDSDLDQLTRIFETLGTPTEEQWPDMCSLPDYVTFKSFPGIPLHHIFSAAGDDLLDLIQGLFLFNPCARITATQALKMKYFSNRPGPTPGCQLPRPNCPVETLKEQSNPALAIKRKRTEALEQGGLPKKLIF
T3 sequence (P51946 whole entry partner): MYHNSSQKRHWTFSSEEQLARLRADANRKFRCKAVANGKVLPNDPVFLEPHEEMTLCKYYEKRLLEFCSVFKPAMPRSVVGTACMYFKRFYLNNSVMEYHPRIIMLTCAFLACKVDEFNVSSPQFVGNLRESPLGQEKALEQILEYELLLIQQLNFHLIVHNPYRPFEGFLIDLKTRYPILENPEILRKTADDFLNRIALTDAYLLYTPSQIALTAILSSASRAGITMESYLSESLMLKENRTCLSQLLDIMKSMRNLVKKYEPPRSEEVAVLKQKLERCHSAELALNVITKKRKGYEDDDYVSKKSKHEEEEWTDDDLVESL
T3 sequence (P51948 whole entry partner): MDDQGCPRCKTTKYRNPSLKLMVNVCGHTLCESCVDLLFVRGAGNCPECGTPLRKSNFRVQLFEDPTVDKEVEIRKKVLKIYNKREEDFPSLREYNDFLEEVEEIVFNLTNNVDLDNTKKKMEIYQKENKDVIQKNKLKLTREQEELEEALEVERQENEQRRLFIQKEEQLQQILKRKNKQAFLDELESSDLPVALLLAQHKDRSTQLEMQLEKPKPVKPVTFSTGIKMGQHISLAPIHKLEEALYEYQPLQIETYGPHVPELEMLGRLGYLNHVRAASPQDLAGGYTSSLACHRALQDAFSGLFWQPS

| Compound | CDK2 IC50 range class [1] | CDK9: Selectivity of CDK7 inhibition over CDK9 inhibition [fold] [2] | IC50 [3, 4] | Selectivity CDK7 over CDK9 [fold] ([2]; Table 6, CDK9 activity as multiple of CDK7 activity) | IC50 ([3]; Table 6, read-out: IC50 [nM] CDK7) |
| --- | --- | --- | --- | --- | --- |
| COc1cccc([C@H](C)Nc2nc(NCCOCCN)nc3c(C(C)C)cnn23)c1 [(VIII-u), (S)-N2-(2-(2-aminoethoxy)ethyl)-8-isopropyl-N4-(1-(3-methoxyphenyl)ethyl)pyrazolo[1,5-a][1,3,5]triazine-2,4-diamine] | +++ (IC50>2500 nM) | +++ (IC50>2500 nM) | 30 to 100 nM |  |  |
| COc1cccc([C@H](C)Nc2nc(CNCCN)nc3c(C(C)C)cnn23)c1 [(XXIX-2), (S)-N1-((8-isopropyl-4-((1-(3-methoxyphenyl)ethyl)amino)pyrazolo[1,5-a][1,3,5]triazin-2-yl)methyl)ethane-1.2-diamine] | +++ (IC50>2500 nM) | +++ (IC50>2500 nM) | > 100 nM |  |  |
| COc1cccc([C@H](C)Nc2nc(CN(C)CCN3CCCC3)nc3c(C(C)C)cnn23)c1 [(XXIX-6), (S)-8-isopropyl-N-(1-(3-methoxyphenyl)ethyl)-2-((methyl(2-(pyrrolidin-1-yl)ethyl)amino)methyl)pyrazolo[1,5-a][1,3,5]triazin-4-amine] | +++ (IC50>2500 nM) | +++ (IC50>2500 nM) | > 100 nM |  |  |
| COc1cccc([C@H](C)Nc2nc(C(=O)N(C)CCN3CCOCC3)nc3c(C(C)C)cnn23)c1 [(XXVI-2), (S)-8-isopropyl-4-((1-(3-methoxyphenyl)ethyl)amino)-N-methyl-N-(2-morpholinoethyl)pyrazolo[1,5-a][1,3,5]triazine-2-carboxamide] | +++ (IC50>2500 nM) | +++ (IC50>2500 nM) | > 100 nM |  |  |
| COc1cccc([C@H](C)Nc2nc(N3CCC4(CCCN4)CC3)nc3c(C(C)C)cnn23)c1 [(VIII-ai), (S)-8-isopropyl-N-(1-(3-methoxyphenyl)ethyl)-2-(1,8-diazaspiro[4.5]decan-8-yl)pyrazolo[1,5-a][1,3,5]triazin-4-amine] | +++ (IC50>2500 nM) | +++ (IC50>2500 nM) | < 10 nM |  |  |
| COc1cccc([C@H](C)Nc2nc(C(=O)N3CC4(CNC4)C3)nc3c(C(C)C)cnn23)c1 [(XXVI-1), (S)-(8-isopropyl-4-((1-(3-methoxyphenyl)ethyl)amino)pyrazolo[1,5-a][1,3,5]triazin-2-yl)(2,6-diazaspiro[3.3]heptan-2-yl)methanone] | +++ (IC50>2500 nM) | +++ (IC50>2500 nM) | > 100 nM |  |  |
| COc1cccc([C@H](C)Nc2nc(N3CCC34CCNCC4)nc3c(C(C)C)cnn23)c1 [(VIII-al), (S)-8-isopropyl-N-(1-(3-methoxyphenyl)ethyl)-2-(1,7-diazaspiro[3.5]nonan-1-yl)pyrazolo[1,5-a][1,3,5]triazin-4-amine] | +++ (IC50>2500 nM) | +++ (IC50>2500 nM) | < 10 nM |  |  |
| COc1cccc(CNc2nc(OC3CCN(C)CC3)nc3c(C(C)C)cnn23)c1 [C-II, reference compound] |  |  |  | 9 fold | < 10 nM |

Continued, values first:

| CDK2 IC50 range class [1] | CDK9: Selectivity of CDK7 inhibition over CDK9 inhibition [fold] [2] | IC50 [3, 4] | Selectivity CDK7 over CDK9 [fold] ([2]; Table 6, CDK9 activity as multiple of CDK7 activity) | IC50 ([3]; Table 6, read-out: IC50 [nM] CDK7) | Compound |
| --- | --- | --- | --- | --- | --- |
| +++ (IC50>2500 nM) | +++ (IC50>2500 nM) | > 100 nM |  |  | CC(C)c1cnn2c(NC(C)c3ccccc3N3CCCC3)nc(O[C@@H]3CCCNC3)nc12 (stereo partly drawn) [(VII-ap), 8-isopropyl-2-((R)-piperidin-3-yloxy)-N-(1-(2-(pyrrolidin-1-yl)phenyl)ethyl)pyrazolo[1,5-a][1,3,5]triazin-4-amine] |
| +++ (IC50>2500 nM) | +++ (IC50>2500 nM) | > 100 nM |  |  | CCOc1cccc([C@H](C)Nc2nc(O[C@@H]3CCCNC3)nc3c(C(C)C)cnn23)c1 [(VII-aV), N-((S)-1-(3-ethoxyphenyl)ethyl)-8-isopropyl-2-((R)-piperidin-3-yloxy)pyrazolo[1.5-a][1,3,5]triazin-4-amine] |
| +++ (IC50>2500 nM) | +++ (IC50>2500 nM) | > 100 nM |  |  | CC(C)c1cnn2c(N[C@@H](C)c3ccc(Cl)cc3)nc(O[C@@H]3CCCNC3)nc12 [(VII-al), N-((S)-1-(4-chlorophenyl)ethyl)-8-isopropyl-2-((R)-piperidin-3-yloxy)pyrazolo[1,5-a][1,3,5]triazin-4-amine] |
| +++ (IC50>2500 nM) | +++ (IC50>2500 nM) | 10 to 30 nM |  |  | CC(C)c1cnn2c(N[C@@H](C)c3cccc4ccccc34)nc(O[C@@H]3CCCNC3)nc12 [(VII-am), 8-isopropyl-N-((S)-1-(naphthalen-1-yl)ethyl)-2-((R)-piperidin-3-yloxy)pyrazolo[1,5-a][1,3,5]triazin-4-amine] |
| +++ (IC50>2500 nM) | +++ (IC50>2500 nM) | 10 to 30 nM |  |  | CC(C)c1cnn2c(N[C@@H](C)c3cccc(OC(F)(F)F)c3)nc(O[C@@H]3CCCNC3)nc12 [(VII-ay), 8-isopropyl-2-((R)-piperidin-3-yloxy)-N-((S)-1-(3-(trifluoro-methoxy)phenyl)ethyl)pyrazolo[1,5-a][1,3,5]triazin-4-amine] |
| +++ (IC50>2500 nM) | +++ (IC50>2500 nM) | > 100 nM |  |  | CC(C)c1cnn2c(NC(C)c3ccccc3C3CC3)nc(O[C@@H]3CCCNC3)nc12 (stereo partly drawn) [(VII-ao), N-(1-(2-cyclopropyl-phenyl)ethyl)-8-isopropyl-2-((R)-piperidin-3-yloxy)pyrazolo[1,5-a][1,3,5]triazin-4-amine] |
| +++ (IC50>2500 nM) | +++ (IC50>2500 nM) | < 10 nM |  |  | CC(C)c1cnn2c(N[C@@H](C)c3ccccc3)nc([S+]([O-])C3CCNCC3)nc12 (stereo partly drawn) [(X-a), 8-isopropyl-N-((S)-1-phenylethyl)-2-(piperidin-4-ylsulfinyl)pyrazolo[1,5-a][1,3,5]triazin-4-amine] |
| +++ (IC50>2500 nM) |  | 10 to 30 nM |  |  | CC(C)c1cnn2c(N[C@H](c3ccccc3)C3CC3)nc(O[C@@H]3CCCNC3)nc12 [(VII-s), N-((S)-cyclopropyl(phenyl)methyl)-8-isopropyl-2-((R)-piperidin-3-yloxy)pyrazolo[1,5-a][1,3,5]triazin-4-amine] |
| +++ (IC50>2500 nM) |  | 10 to 30 nM |  |  | CC(C)c1cnn2c(N[C@@H](C)c3ccccc3)nc(NC3CCNCC3)nc12 [(VIII-d), (S)-8-isopropyl-N4-(1-phenylethyl)-N2-(piperidin-4-yl)pyrazolo[1,5-a][1,3,5]triazine-2,4-diamine] |
|  | +++ (IC50>2500 nM) | < 10 nM |  |  | COc1ccccc1[C@H](C)Nc1nc(N[C@@H]2CCCNC2)nc2c(C(C)C)cnn12 [(VIII-g), 8-isopropyl-N4-((S)-1-(2-methoxyphenyl)ethyl)-N2-((R)-piperidin-3-yl)pyrazolo[1,5-a][1,3,5]triazine-2,4-diamine] |
|  | +++ (IC50>2500 nM) | < 10 nM |  |  | CC(C)c1cnn2c(NC(C)c3ccccc3-n3cccn3)nc(O[C@@H]3CCCNC3)nc12 (stereo partly drawn) [(VII-V), N-(1-(2-(1H-pyrazol-1-yl)phenyl)ethyl)-8-isopropyl-2-((R)-piperidin-3-yloxy)pyrazolo[1,5-a][1,3,5]triazin-4-amine] |
